For one compound, Kd results are on record in paper PMC6401853, “Fabrication of Carbohydrate Chips Based on Polydopamine for Real-Time Determination of Carbohydrate–Lectin Interactions by QCM Biosensor” (Polymers, 2018).

By Kd is commonly meant a measure of binding affinity in units of concentration.

This assay addresses wheat germ agglutinin (WGA). As to the kind of experiment: QCM biosensor kinetics, lectin over immobilized amino-GlcNAc derivative on polydopamine chip, […] fit. In kind it is binding.

Compound `CC(=O)N[C@H]1C(O)O[C@H](CO)[C@@H](O)[C@@H]1O` (stereo partly shown) [N-Acetylglucosamine] yielded a Kd of 47.2 nM.
